Reference: ChEMBL document CHEMBL5338735, “Designing Smaller, Synthetic, Functional Mimetics of Sulfated Glycosaminoglycans as Allosteric Modulators of Coagulation Factors” (J Med Chem, 2023)
Blank lines part the entries; values can stand above or below the compound they belong to.

Columns and labels:
Coagulation factor XI [1] = target: T1, Coagulation factor XI (Homo sapiens, UniProt P03951); assay: Inhibition of human Factor XIa assessed as substrate hydrolysis measured by measuring residual activity after 10 mins by chromogenic substrate hydrolysis assay relative to control
T1 sequence (P03951 19-387 limits assumed): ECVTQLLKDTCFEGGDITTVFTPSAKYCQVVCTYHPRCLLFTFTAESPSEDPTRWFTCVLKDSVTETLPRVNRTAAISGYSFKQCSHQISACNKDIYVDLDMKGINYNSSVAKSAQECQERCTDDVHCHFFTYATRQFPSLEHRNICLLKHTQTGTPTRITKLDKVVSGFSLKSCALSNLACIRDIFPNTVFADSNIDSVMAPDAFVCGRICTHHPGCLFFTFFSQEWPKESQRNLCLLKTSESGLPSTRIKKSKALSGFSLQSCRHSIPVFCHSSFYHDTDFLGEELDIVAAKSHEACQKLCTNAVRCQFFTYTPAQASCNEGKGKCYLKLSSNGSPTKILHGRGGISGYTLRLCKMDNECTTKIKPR
T1 sequence (P03951 388-625 limits assumed): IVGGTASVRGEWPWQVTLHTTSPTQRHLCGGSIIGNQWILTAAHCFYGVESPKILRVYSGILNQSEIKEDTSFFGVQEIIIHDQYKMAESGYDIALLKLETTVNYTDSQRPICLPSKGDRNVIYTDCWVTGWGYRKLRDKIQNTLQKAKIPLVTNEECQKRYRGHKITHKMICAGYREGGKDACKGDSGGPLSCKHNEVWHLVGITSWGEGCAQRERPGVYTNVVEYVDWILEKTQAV

Coagulation factor XI [2] = target: T1, Coagulation factor XI; assay: Inhibition of human recombinant FXIa assessed as S-2366 hydrolysis
[3] = target: Coagulation factor X (Homo sapiens) (UniProt P00742); assay: Inhibition of human factor Xa assessed as fold change relative to basal value
Sequence of Coagulation factor X (Homo sapiens) (P00742 41-179 limits assumed): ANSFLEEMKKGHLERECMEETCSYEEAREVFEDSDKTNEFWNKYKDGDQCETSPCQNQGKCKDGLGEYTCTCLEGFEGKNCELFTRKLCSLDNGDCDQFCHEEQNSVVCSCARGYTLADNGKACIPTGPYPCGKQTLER
Sequence of Coagulation factor X (Homo sapiens) (P00742 235-488 limits assumed): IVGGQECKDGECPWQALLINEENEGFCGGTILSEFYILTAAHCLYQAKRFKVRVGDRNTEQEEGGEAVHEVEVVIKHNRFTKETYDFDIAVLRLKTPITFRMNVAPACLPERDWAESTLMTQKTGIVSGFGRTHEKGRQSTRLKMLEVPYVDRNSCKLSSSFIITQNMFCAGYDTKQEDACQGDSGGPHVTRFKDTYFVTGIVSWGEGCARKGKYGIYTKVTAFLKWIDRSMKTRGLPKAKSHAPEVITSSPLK

Coagulation factor XI [4] = target: T1, Coagulation factor XI; assay: Inhibition of human factor XIa
Prothrombin [5] = target: T2, Prothrombin (Homo sapiens, UniProt P00734); assay: Inhibition of thrombin in human plasma measured after 10 mins by chromogenic substrate hydrolysis assay; type: cell-free
Prothrombin [6] = target: T2, Prothrombin; assay: Inhibition of thrombin in human plasma assessed as maximal efficacy measured after 10 mins by chromogenic substrate hydrolysis assay relative to control; type: cell-free

SMILES: O=C(Nc1ccc(C(=O)Nc2ccc(C(=O)Nc3ccc(S(=O)(=O)O)c4cc(S(=O)(=O)O)cc(S(=O)(=O)O)c34)cc2)cc1)Nc1ccc(C(=O)Nc2ccc(C(=O)Nc3ccc(S(=O)(=O)O)c4cc(S(=O)(=O)O)cc(S(=O)(=O)O)c34)cc2)cc1
- Activity (Coagulation factor XI [1]): > 90%

SMILES: Cc1ccc(C(=O)Nc2ccc(CP(=O)(O)O)cc2CP(=O)(O)O)cc1NC(=O)c1cccc(NC(=O)Nc2cccc(C(=O)Nc3cc(C(=O)Nc4ccc(CP(=O)(O)O)cc4CP(=O)(O)O)ccc3C)c2)c1
- Activity (Coagulation factor XI [1]): 68%

SMILES: COc1cc2oc(C)c(C(=O)OC(C)(C)C)c2cc1OCc1oc2cc(OC)c(OS(=O)(=O)O)cc2c1C(=O)OC(C)(C)C
- IC50 (Coagulation factor XI [4]): 7.3 µM

SMILES: COc1cc2oc(C)c(C(=O)O)c2cc1OS(=O)(=O)O
- IC50 (Coagulation factor XI [4]): > 2 µM

SMILES: O=c1oc2cc(OCCCCn3cc(COc4ccc(-c5oc(=O)c6c(Cl)cc(Cl)cc6c5-c5ccccc5)cc4)nn3)ccc2c(-c2ccccc2)c1-c1ccc(OS(=O)(=O)O)cc1
- IC50 (Prothrombin [5]): 0.18 µM
- Efficacy (Prothrombin [6]): 47%

The next lines start with the values.

- IC50 (Coagulation factor XI [2]): 0.28 µM
SMILES: O=C(O[C@@H]1[C@H](OC(=O)c2cc(OS(=O)(=O)O)cc(OS(=O)(=O)O)c2)[C@@H](OC(=O)c2cc(OS(=O)(=O)O)cc(OS(=O)(=O)O)c2)[C@H](OC(=O)c2ccc(OS(=O)(=O)O)cc2OS(=O)(=O)O)[C@@H](OC(=O)c2cc(OS(=O)(=O)O)cc(OS(=O)(=O)O)c2)[C@H]1OC(=O)c1cc(OS(=O)(=O)O)cc(OS(=O)(=O)O)c1)c1cc(OS(=O)(=O)O)cc(OS(=O)(=O)O)c1

- fold change (FC) [3]: 20.8
SMILES: O=S(=O)(O)Oc1cc2c(c(OS(=O)(=O)O)c1)C[C@H](OS(=O)(=O)O)[C@@H](c1ccc(OS(=O)(=O)O)c(OS(=O)(=O)O)c1)O2

- IC50 (Coagulation factor XI [4]): 0.15 µM
SMILES: COc1cc(CCCS(=O)(=O)O)ccc1O[C@H](Cc1cccc(OC)c1O)CS(=O)(=O)O

- fold change (FC) [3]: 10.8
SMILES: O=S(=O)(O)Oc1cc2c(c(OS(=O)(=O)O)c1)C[C@@H](OS(=O)(=O)O)[C@@H](c1ccc(OS(=O)(=O)O)c(OS(=O)(=O)O)c1)O2
